Data reported in patent US6057317A, “Heterocyclic compounds” (Adir et Compagnie, priority 1997, dated 2000).
pKi: −log10 of the molar value.

Columns and labels:
[1] = tested on: SHR rats; assay: Antihypertensive activity in conscious rats; assay type: in vivo, rat; conditions: oral, dose of 15 mg/kg
Experimental: The tests were carried out in SHR rats. The animals are anaesthetised. A heparinised catheter is introduced into the left carotid artery and connected to a recording apparatus so as to measure the systolic and diastolic arterial pressure and the heart rate. The animals are returned to their cage and the tests are carried out after 24 hours.
The parameters to be measured stabilise during a period of at least 30 minutes, during which a maximum of 1.5 ml of saline solution is injected in such a manner as to optimise the measurements. Only animals whose arterial pressure is higher than or equal to 170 mmHg are included in the study.
The test compounds of the carrier are administered orally and the measurements are carried out before the treatment and every ten minutes after treatment, for 4 hours, and then 8 and 24 hours after treatment.

[2] = molecular target: imidazoline I1 receptor; assay: Measurement of in vitro affinity for the I1 receptor (radioligand displacement); assay type: binding; conditions: [3H] clonidine + 10 μM noradrenaline; bovine lateral reticulated nucleus
Experimental: (§1) The profile of binding to the imidazoline I1 and I2 receptors was determined for the compounds of the invention by evaluating the ability of those compounds to displace specific radioligands of the receptors in question.
(§2) The following Table indicates the radioligand used to label each receptor, the compound and the concentration selected to determine the non-specific fraction, and the tissue selected. […]
10 μM reticulated nucleus

[3] = molecular target: imidazoline I2 receptor; assay: Measurement of in vitro affinity for the I2 receptor (radioligand displacement); assay type: binding; conditions: [3H] idazoxan + 10 μM noradrenaline; renal cortex of rabbit
Experimental: as §1, §2

In the case of Cc1ccc2c(c1)N(C)CC(C1=NCCN1)O2 (stereo not drawn) [Example 2, 2-(4,5-Dihydro-1H-2-imidazolyl)-4,6-dimethyl-3,4-dihydro-2H-1,4-benzoxazineoxalate], the “effect on arterial pressure” value [1] was “allowed the arterial pressure to be normalized”, the pKi [2] was 7.66 and the pKi [3] was 8.70.
